In ChEMBL document CHEMBL1201862, “PubChem BioAssay data set” (2004):
One block for each compound: values may come before it. Calls of active or inactive are those of the source.

Assays:
Kallikrein-7 = Kallikrein-7 (Homo sapiens, UniProt P49862); test: Fluorescence Intensity-based biochemical primary high throughput dose response assay to identify activators of kallikrein-7 (K7) zymogen.
Paired box protein Pax-8 = Paired box protein Pax-8 (Homo sapiens, UniProt Q06710); test: PAX8 transcriptional activity inhibition in RMG-I – RMG-I cells, luciferase, cherry-pick, dose response (AID 687027); format: functional, cell-based;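 further: luciferase reporter driven by Pax8 target thyroperoxidase promoter measured by SteadyGlo luminescence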
[1] = blockers of HIV-1 envelope-mediated cell-cell fusion – cherry-pick, dose response (AID 652057); format: functional, cell-based
[2] = HIV-1 AD8 envelope cell-cell fusion blockers – cherry-pick, dose response (AID 652062); format: functional, cell-based;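 further: luciferase signal from cell-cell fusion driven by HIV-1 clade B AD8 Env; potency is for inhibitors of fusion seen as a drop in luminescence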
[3] = OVCAR-3 cell viability loss – plate reader, dry powder samples, PAX8 inhibitor project, dose response (AID 743044); format: functional, cell-based
[4] = general cell-killing toxicity readout – plate reader, dry powder samples, cytotoxicity control for PAX8 inhibitor project, dose response (AID 743021); format: functional, cell-based
[5] = target: T1, 1-phosphatidylinositol 4,5-bisphosphate phosphodiesterase gamma-1 (Homo sapiens, UniProt P19174); test: Counterscreen for inhibitors of phospholipase C isozymes (PLC-B3): Fluorescence-based biochemical high throughput dose response assay to identify inhibitors of phospholipase C isozymes (PLC-gamma1).
T1 sequence (P19174 whole entry): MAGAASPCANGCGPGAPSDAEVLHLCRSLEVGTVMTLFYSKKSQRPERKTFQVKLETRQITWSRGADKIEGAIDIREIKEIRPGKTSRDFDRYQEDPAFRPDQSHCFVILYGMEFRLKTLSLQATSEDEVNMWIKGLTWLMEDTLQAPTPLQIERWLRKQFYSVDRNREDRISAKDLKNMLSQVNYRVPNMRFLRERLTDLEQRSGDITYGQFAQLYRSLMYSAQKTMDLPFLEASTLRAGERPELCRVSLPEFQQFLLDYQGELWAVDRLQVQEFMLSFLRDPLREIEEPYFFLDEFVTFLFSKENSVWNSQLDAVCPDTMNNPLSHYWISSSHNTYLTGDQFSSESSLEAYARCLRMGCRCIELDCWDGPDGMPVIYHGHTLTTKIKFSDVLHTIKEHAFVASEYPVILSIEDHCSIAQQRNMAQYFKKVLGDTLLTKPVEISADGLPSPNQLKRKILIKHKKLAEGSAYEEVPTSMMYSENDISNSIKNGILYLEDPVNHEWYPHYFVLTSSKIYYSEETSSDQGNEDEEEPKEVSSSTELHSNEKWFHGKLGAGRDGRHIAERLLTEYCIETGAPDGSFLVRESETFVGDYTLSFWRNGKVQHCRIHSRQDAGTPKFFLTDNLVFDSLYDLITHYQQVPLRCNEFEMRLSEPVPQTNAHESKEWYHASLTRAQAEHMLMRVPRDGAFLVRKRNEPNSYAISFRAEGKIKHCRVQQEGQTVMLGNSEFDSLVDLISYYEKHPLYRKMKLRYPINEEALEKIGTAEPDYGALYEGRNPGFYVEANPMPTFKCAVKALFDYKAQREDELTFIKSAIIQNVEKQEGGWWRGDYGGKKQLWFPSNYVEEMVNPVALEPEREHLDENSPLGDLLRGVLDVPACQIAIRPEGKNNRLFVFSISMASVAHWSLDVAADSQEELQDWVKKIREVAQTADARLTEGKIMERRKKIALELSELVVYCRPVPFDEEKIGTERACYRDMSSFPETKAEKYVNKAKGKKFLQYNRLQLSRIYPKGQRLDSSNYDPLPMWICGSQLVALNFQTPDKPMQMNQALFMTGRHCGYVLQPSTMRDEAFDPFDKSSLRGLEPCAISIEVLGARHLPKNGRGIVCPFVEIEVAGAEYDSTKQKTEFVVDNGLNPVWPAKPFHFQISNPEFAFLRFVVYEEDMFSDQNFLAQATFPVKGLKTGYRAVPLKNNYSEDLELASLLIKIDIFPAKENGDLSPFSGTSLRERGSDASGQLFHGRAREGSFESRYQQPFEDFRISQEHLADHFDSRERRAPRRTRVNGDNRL

[6] = target: T2, 1-phosphatidylinositol 4,5-bisphosphate phosphodiesterase beta-3 (Homo sapiens, UniProt Q01970); test: Fluorescence-based biochemical high throughput dose response assay to identify inhibitors of phospholipase C isozymes (PLC-B3).
T2 sequence (Q01970 whole entry): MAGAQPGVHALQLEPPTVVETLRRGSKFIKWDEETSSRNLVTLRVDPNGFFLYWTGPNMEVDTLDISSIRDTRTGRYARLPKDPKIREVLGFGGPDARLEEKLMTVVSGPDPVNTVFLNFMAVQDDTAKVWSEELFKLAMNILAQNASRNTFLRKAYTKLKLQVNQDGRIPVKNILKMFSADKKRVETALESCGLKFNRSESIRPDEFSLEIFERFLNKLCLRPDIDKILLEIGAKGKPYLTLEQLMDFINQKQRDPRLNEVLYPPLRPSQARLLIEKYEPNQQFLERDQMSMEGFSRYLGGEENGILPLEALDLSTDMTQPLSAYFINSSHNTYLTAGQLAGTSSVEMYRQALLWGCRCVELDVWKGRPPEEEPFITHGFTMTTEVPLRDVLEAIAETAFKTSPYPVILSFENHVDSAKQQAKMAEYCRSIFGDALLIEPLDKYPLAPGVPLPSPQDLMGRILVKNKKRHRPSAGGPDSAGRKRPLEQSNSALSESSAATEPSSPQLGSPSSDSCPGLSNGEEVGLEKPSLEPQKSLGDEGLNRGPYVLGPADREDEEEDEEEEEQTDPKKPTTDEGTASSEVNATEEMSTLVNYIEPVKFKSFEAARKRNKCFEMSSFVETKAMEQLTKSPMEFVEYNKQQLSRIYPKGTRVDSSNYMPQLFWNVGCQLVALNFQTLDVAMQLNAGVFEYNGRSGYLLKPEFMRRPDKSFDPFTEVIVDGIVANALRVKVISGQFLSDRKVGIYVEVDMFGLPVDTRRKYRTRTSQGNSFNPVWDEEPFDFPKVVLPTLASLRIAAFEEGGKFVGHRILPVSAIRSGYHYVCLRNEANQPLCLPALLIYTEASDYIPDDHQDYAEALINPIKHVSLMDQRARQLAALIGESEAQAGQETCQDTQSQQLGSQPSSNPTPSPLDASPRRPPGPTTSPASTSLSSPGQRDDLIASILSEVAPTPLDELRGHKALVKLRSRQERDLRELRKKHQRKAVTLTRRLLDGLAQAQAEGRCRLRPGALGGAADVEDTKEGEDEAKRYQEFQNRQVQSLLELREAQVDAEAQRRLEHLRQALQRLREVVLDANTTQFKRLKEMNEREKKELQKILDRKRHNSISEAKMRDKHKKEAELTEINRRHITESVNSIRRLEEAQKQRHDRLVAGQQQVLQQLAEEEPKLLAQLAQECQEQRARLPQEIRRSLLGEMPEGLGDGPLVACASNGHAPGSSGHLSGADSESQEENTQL

[7] = rise of 2N DNA cells, HeLa – IC50, dose response (AID 1117349); format: functional, cell-based
[8] = rise of 4N DNA cells, HeLa – IC50, dose response (AID 1117351); format: functional, cell-based
[9] = RKO cell viability reduction, dose response, CellTiter-Glo luminescence (AID 1117322); format: functional
[10] = HCT116 cell viability decrease, GSK3B pretreatment – CellTiter-Glo, IC50, dose response (AID 1117339); format: functional; conditions: HCT-116
[11] = cytotoxicity toward HT-29 cells – cell-based, CellTiter-Glo luminescence, IC50, dose response (AID 1117330); format: functional
BJ [12] = test: BJ-TERT-LT-ST fibroblast viability loss – cell-based, RAS-independent, luminescence, dose response (AID 1935); format: functional; conditions: Homo sapiens;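 further: BJ fibroblasts immortalized with TERT plus LT and ST oncogenes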
BJ [13] = test: cells; format: functional, cell-based; conditions: Homo sapiens
BJ [14] = test: growth inhibition of engineered Ras-driven BJ cells – cell-based, alamar blue fluorescence, cherrypicked samples, dose response (AID 2631); format: functional; conditions: Homo sapiens;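 further: confirmatory dose-response assay in RAS-dependent BJ fibroblasts engineered with TERT, LT and ST, with cytotoxicity read by fluorescence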
[15] = DRD fibroblast viability loss – cell-based, non-viral oncogenic, luminescence, dose response (AID 1934); format: functional; conditions: Homo sapiens
BJ [16] = test: BJ-TERT fibroblast viability loss – cell-based, RAS-independent, luminescence, dose response (AID 1933); format: functional; conditions: Homo sapiens
[17] = cytotoxicity toward HCT116 cells – cell-based, CellTiter-Glo luminescence, IC50, dose response (AID 1117332); format: functional; conditions: HCT-116
[18] = SNU-C1 cell viability reduction, dose response, CellTiter-Glo luminescence (AID 1117323); format: functional, cell-based
[19] = Reduced DLD-1 viability, concentration-response, CellTiter-Glo luminescence (AID 1117352); format: functional

Paired box protein Pax-8, sequence (Q06710 whole entry, the tested form may be a part): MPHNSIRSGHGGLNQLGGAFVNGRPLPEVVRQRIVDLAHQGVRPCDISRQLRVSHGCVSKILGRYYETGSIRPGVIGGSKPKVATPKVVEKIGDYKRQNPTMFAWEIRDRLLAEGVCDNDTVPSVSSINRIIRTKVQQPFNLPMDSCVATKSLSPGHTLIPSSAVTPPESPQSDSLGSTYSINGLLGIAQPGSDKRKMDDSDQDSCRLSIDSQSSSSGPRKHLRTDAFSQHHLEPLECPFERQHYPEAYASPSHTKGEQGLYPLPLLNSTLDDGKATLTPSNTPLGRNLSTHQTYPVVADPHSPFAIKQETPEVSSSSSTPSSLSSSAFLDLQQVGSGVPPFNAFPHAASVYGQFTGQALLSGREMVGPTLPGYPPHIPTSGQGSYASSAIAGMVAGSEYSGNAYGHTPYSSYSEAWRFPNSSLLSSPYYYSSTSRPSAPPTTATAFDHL
Kallikrein-7, sequence (P49862 whole entry): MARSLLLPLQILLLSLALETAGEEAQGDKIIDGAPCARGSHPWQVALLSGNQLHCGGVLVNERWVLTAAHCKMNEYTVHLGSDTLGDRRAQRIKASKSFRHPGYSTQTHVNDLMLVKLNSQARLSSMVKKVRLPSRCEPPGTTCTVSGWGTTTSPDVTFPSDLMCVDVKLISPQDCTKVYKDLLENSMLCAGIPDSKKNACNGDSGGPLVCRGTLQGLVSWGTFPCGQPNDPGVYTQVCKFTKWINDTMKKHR

EC50 (Kallikrein-7): 7.57 µM (active)
Compound: COc1ccccc1CC(=O)Nc1ccc(NC(=O)c2cccs2)cc1

Compound: COc1ccccc1C#Cc1ccc2c(c1)O[C@H](CN(C)Cc1ccncc1)[C@@H](C)CN([C@@H](C)CO)S2(=O)=O
AC50 (Paired box protein Pax-8): 10.9 µM (active)
AC50 [1]: 38.1 µM (active)
AC50 [2]: 25.9 µM (active)
AC50 [3]: 57.8 µM (active)
AC50 [4]: 61.5 µM (active)

IC50 [5]: 47.8 µM (inactive)
IC50 [6]: 45.1 µM (inactive)
Compound: CCNC(=O)C[C@H]1CC[C@H]2[C@@H](COc3ccc(NC(=O)c4ccc5c(c4)OCO5)cc3C(=O)N2C)O1

Compound: CCCCCCCCCCCCNCCNCCNCC(=O)O [DODICIN]
IC50 [7]: > 10 µM (inactive)
IC50 [8]: > 10 µM (inactive)

Compound: Cn1cnc([N+](=O)[O-])c1Sc1ncnc2[nH]cnc12 [AZATHIOPRINE]
IC50 [9]: 2.66 µM (active)
IC50 [10]: 0.623 µM (active)
IC50 [11]: > 20 µM (inactive)
EC50 (BJ [12]): > 150 µM (not active)
EC50 (BJ [13]): 5.04 µM (inconclusive)
IC50 [7]: > 10 µM (inactive)
EC50 (BJ [14]): > 133 µM (inactive)
EC50 [15]: 2.9 µM (active)
EC50 (BJ [16]): > 150 µM (not active)
IC50 [17]: 0.207 µM (active)
IC50 [8]: > 10 µM (inactive)
IC50 [18]: > 20 µM (inactive)
IC50 [19]: 0.364 µM (active)
